Reference: patent US20230355571A1, “METHOD FOR TREATING VIRAL AND BACTERIAL INFECTION THROUGH INHALATION THERAPY” (priority 2020, published 2023)
≈ marks a conversion by molar mass, not a printed value. Like-named read-outs stand apart in the source and are kept apart here.

Columns and labels:
human whole blood = settings: 102 μg/mL; cited from earlier work
[1] = system: Herpes simplex virus type 1 (HSV-1); settings: cited from earlier work
S. aureus = settings: cited from earlier work
K. pneumoniae = settings: cited from earlier work
[2] = cited from earlier work
NCI-H358 cells = settings: cited from earlier work
[3] = system: human lung carcinoma (A549) cell line; settings: cited from earlier work
DENV-2 (Dengue Virus 2) = settings: cited from earlier work
[4] = for Concentration in Epithelial Lining Fluid: single 2 mL dose, 25 mL ELF, 100 percent retained
mice [5] = assay: NOAEL, oral, mice; settings: for factor NOAEL over daily inhaled dose: 2 mL/dose 4 times per day of Table A2 composition; for NOAEL for a 62 kg adult human: extrapolated from mouse NOAEL
P. aeruginosa = settings: cited from earlier work
CB2 receptor = CB2 receptor (Homo sapiens, UniProt P34972); settings: unit inferred; read-out: Ki, CB2 receptor binding; cited from earlier work
E. coli (MTCC 732) = settings: cited from earlier work
[6] = system: patients with reversible obstructive ventilatory disorders; settings: cited from earlier work
monocytes = settings: cited from earlier work
avian coronavirus (IBV) = settings: cited from earlier work
TRPV1 = TRPV1 (Homo sapiens, UniProt Q8NER1); settings: cited from earlier work
human TRPM8 (hTRPM8) = human TRPM8 (hTRPM8) (Homo sapiens, UniProt Q7Z2W7); settings: cited from earlier work
[7] = system: superoxide, super oxide dismutase, hydrogen peroxide, 8-isoprostanes; settings: cited from earlier work
hTRPA1 = hTRPA1 (Homo sapiens, UniProt O75762); settings: cited from earlier work
blood monocytes = settings: cited from earlier work
hTRPV2 = hTRPV2 (Homo sapiens, UniProt Q9Y5S1); settings: cited from earlier work
[8] = system: patients with steroid-dependent bronchial asthma; settings: cited from earlier work
lymphocytes = settings: cited from earlier work
mice [9] = settings: oral, mice, 28-d; cited from earlier work

Sequence of CB2 receptor (P34972 whole entry): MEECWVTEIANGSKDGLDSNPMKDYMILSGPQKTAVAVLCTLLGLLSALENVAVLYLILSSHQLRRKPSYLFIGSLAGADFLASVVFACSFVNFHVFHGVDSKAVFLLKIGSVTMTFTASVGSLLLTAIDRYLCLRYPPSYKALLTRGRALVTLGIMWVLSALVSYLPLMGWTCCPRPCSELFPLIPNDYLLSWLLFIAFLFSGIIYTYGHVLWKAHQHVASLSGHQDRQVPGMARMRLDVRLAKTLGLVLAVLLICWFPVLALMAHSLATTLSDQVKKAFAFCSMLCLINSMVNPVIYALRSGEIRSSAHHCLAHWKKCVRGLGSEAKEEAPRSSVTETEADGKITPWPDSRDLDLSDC
Sequence of hTRPA1 (O75762 whole entry): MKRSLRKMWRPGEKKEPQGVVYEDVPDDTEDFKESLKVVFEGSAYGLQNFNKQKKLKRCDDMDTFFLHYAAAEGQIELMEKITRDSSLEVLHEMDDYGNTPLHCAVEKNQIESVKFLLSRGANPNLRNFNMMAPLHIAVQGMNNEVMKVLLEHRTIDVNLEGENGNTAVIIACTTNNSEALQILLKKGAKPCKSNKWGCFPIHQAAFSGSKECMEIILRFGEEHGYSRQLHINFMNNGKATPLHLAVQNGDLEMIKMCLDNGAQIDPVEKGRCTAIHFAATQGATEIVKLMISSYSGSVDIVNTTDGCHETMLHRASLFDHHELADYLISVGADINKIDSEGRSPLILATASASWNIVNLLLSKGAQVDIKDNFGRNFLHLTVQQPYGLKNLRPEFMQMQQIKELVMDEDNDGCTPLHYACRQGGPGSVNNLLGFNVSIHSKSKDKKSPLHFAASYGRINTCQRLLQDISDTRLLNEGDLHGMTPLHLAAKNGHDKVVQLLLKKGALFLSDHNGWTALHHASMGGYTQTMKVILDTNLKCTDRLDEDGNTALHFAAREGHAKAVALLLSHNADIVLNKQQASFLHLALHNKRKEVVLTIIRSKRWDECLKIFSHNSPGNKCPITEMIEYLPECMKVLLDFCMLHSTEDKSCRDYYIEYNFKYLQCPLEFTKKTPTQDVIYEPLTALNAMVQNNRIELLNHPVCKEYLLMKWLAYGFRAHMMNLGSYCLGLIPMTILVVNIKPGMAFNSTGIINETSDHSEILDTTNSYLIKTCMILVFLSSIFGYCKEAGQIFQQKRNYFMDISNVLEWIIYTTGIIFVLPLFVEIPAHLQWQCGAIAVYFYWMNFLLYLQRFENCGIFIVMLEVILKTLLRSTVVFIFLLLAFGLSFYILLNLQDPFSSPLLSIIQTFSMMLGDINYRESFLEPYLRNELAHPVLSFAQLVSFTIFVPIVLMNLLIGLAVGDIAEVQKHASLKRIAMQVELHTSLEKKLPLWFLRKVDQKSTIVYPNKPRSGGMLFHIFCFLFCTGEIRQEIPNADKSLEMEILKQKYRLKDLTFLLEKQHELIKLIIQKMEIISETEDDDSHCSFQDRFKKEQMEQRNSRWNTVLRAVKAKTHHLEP
Sequence of human TRPM8 (hTRPM8) (Q7Z2W7 whole entry): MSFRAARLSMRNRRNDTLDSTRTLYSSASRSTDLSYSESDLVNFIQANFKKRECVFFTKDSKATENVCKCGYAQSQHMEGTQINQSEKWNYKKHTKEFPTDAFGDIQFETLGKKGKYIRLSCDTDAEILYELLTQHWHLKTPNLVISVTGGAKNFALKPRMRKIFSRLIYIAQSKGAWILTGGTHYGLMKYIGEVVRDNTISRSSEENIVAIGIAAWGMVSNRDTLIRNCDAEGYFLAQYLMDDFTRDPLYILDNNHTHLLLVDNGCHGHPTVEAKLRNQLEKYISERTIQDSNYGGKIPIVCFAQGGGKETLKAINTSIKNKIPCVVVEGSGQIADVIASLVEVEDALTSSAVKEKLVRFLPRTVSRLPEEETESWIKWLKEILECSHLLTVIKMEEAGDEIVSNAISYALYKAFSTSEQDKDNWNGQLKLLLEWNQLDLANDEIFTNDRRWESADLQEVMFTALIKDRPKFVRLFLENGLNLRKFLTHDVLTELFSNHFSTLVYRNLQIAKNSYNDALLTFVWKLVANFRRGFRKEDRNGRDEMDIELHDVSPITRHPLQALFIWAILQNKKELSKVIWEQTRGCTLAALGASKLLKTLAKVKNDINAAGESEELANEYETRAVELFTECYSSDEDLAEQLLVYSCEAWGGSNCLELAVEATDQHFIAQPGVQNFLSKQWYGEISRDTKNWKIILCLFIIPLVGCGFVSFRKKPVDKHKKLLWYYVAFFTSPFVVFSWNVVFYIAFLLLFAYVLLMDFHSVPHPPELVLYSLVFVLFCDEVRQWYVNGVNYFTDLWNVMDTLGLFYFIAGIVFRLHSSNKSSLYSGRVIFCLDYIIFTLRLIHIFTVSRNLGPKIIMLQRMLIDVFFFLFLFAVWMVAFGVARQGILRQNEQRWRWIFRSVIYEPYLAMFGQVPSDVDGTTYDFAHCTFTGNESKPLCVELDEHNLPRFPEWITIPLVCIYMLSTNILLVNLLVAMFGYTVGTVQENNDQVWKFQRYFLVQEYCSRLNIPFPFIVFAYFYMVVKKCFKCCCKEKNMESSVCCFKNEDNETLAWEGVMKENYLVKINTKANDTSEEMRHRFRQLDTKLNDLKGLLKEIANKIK
Sequence of TRPV1 (Q8NER1 whole entry): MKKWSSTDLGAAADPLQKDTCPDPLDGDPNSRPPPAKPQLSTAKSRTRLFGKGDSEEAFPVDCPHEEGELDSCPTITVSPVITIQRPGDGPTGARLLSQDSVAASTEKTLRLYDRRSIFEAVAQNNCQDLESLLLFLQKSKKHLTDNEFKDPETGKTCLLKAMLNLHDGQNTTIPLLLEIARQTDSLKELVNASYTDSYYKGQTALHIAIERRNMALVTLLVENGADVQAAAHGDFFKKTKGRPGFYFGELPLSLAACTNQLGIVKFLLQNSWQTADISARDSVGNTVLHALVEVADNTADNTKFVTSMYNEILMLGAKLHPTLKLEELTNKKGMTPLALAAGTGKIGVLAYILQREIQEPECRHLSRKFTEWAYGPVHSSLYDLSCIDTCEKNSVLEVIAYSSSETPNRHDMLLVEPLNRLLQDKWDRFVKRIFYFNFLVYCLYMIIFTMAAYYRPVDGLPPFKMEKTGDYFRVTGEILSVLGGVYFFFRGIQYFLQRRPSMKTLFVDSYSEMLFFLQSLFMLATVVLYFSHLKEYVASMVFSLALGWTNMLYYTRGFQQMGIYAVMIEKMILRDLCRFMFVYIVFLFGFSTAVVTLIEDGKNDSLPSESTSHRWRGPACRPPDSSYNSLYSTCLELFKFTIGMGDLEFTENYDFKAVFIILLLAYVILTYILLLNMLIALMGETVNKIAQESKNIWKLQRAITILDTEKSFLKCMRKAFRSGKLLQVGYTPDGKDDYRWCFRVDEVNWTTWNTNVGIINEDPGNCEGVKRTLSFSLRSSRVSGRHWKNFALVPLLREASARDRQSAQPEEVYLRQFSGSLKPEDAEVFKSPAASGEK
Sequence of hTRPV2 (Q9Y5S1 whole entry): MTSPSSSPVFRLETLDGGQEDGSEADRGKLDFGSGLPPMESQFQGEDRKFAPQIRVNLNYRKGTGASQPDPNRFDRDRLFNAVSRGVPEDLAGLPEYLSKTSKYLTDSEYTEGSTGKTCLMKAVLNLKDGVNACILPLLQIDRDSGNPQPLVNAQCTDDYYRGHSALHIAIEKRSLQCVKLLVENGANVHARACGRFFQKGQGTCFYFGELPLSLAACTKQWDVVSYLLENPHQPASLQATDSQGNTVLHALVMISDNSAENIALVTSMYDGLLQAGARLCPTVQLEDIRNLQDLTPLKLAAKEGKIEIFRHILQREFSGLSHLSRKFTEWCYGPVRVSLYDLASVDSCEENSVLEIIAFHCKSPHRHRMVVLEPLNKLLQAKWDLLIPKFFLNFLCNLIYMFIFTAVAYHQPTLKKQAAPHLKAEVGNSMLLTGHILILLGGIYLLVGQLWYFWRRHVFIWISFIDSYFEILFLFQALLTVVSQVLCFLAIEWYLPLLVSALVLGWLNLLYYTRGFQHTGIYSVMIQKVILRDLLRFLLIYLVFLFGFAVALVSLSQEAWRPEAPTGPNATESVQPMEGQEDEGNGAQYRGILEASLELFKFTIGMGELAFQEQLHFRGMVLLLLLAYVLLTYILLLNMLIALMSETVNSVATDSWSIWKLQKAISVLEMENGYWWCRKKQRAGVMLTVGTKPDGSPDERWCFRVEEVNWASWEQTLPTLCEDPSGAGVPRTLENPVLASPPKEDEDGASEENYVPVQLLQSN

In the case of `C=C1CC/C=C(\C)CC[C@@H]2[C@@H]1CC2(C)C` [β-caryophyllene], the “LPS-stimulated IL-1β and TNF-α expression” value (human whole blood) is given as “inhibits”, the IC50 [1] is given as 0.25 µM and the MIC (S. aureus) is given as 3 µM (≈ 0.613 µg/mL). The MIC (K. pneumoniae) was 14 µM (≈ 2.86 µg/mL), the LD50 ([2]; in vivo) was > 5,000 mg/kg and the “cytotoxic IC50” value (NCI-H358 cells) was 31.19 ± 2.01 µg/mL. The “cytotoxic IC50” value [3] was 28.18 ± 1.96 µg/mL, the selectivity index (DENV-2 (Dengue Virus 2); DENV-2, non-cytostatic) was 71.1 and the IC50 (DENV-2 (Dengue Virus 2)) was 22.5 µM. For the same compound, the “IC50, DENV-2” value (DENV-2 (Dengue Virus 2)) was 4.6 µg/mL (≈ 22.5 µM), the “Concentration in Epithelial Lining Fluid” value ([4]; Table A2 Preferred Base Viral Nebulizer Liquid) was 600 µg/mL and the “Concentration in Epithelial Lining Fluid” value ([4]; Table A3 Preferred Viral Respiratory Challenged Nebulizer Liquid) was 970 µg/mL. For the same compound, the “Concentration in Epithelial Lining Fluid” value ([4]; Table A4 Preferred Bacterial Pneumonia Nebulizer Liquid) was 1450 µg/mL, the “Concentration in Epithelial Lining Fluid” value ([4]; Table A6 Preferred Base Nebulizer Liquid with Amino Acids) was 1450 µg/mL and the “factor NOAEL over daily inhaled dose” value (mice [5]) was 868 times. The “NOAEL for a 62 kg adult human” value (mice [5]) was 43,400 mg per day, the MIC (P. aeruginosa) was 7 µM (≈ 1.43 µg/mL) and the Ki (CB2 receptor) was 0.155 µM. For the same compound, the “Minimum Inhibitory Concentration (MIC)” value (E. coli (MTCC 732)) was 9.0 ± 2.2 µM.

For `CC12CCC(CC1)C(C)(C)O2` [1,8-cineole], the “improvement of airway resistance” value ([6]; treatment duration eight weeks) is listed as −21%, the “improvement of airway resistance” value ([6]; treatment duration one week) is listed as −23% and the “inhibition of IL-1β production by monocytes” value (monocytes; 0.15 μg/ml) is listed as 61%. The “inhibition of TNFα production by monocytes” value (monocytes; 0.15 μg/ml) was 77%, the “inhibition of IL-1β production in monocytes” value (monocytes; 1.5 μg/mL) was 84% and the “inhibition of IL-6 production in monocytes” value (monocytes; 1.5 μg/mL) was 76%. For the same compound, the “inhibition of IL-8 production in monocytes” value (monocytes; 1.5 μg/mL) was 65%, the “inhibition of TNFα production in monocytes” value (monocytes; 1.5 μg/mL) was 99% and the IC50 (avian coronavirus (IBV)) was 610 µM. For the same compound, the “activation of hTRPV1” value (TRPV1) was “did not activate”, the LD50 ([2]; in vivo) was 2,480 mg/kg and the “LD50” value ([2]; oral, rat) was 2,480 mg/kg. For the same compound, the “activation of hTRPM8” value (human TRPM8 (hTRPM8)) was “activates”, the “LPS-stimulated 8-isoprostanes” value ([7]; 10^−5 M) was −84% and the “LPS-stimulated 8-isoprostanes” value ([7]; 10^−6 M) was −42%. The “activation of hTRPA1” value (hTRPA1) was “did not activate”, the “production of LTB4 from monocytes ex vivo” value (blood monocytes; day 4, healthy volunteers) was −57.9% and the “production of PGE2 from monocytes ex vivo” value (blood monocytes; day 4, healthy volunteers) was −42.7%. For the same compound, the “production of LTB4 from monocytes ex vivo” value (blood monocytes; day 4, patients with bronchial asthma, 200 mg 3 times/day) was −40.3%, the “production of PGE2 from monocytes ex vivo” value (blood monocytes; day 4, patients with bronchial asthma) was −31.3% and the “activation of hTRPV2” value (hTRPV2) was “did not activate”. For the same compound, the “estimated concentration in the epithelial lining fluid of the lungs” value ([4]; human) was 614 µg/mL, the “mean reduction in daily prednisolone dosage” value ([8]; 200 mg 3 times per day orally, 12 weeks, placebo 0.91 mg) was 3.75 mg and the “reductions in daily prednisolone dosage tolerated” value ([8]; 200 mg 3 times per day orally, 12 weeks, placebo 7%) was 36%. For the same compound, the “patients achieving a reduction of oral steroids” value ([8]; 1,8-cineole group, placebo four out of 16) was “Twelve of 16”, the “inhibition of IL-1β production by lymphocytes” value (lymphocytes; 0.15 μg/ml) was 36% and the “inhibition of TNF-α production by lymphocytes” value (lymphocytes; 0.15 μg/ml) was 16%. The “inhibition of IL-4 production in lymphocytes” value (lymphocytes; 1.5 μg/mL) was 70%, the “inhibition of IL-5 production in lymphocytes” value (lymphocytes; 1.5 μg/mL) was 65% and the “inhibition of TNFα production in lymphocytes” value (lymphocytes; 1.5 μg/mL) was 92%. The “inhibition of cytokine production in lymphocytes, second value (cytokine not named)” value (lymphocytes; 1.5 μg/mL) was 84%, the NOAEL (mice [9]) was 562.5 mg/kg and the “factor NOAEL over daily inhaled dose” value (mice [5]) was 697.5 times. For the same compound, the “NOAEL for a 62 kg adult human” value (mice [5]) was 34,875 mg per day.
